The source of these data is patent publication US12435061B2 (priority 2020, dated 2025).

The structures appear in SMILES notation. Counter-ions that a name gives are not always drawn. Like-named read-outs stand apart in the source and are kept apart here.

In the assay the target is hTRPV3 (Homo sapiens (Human), UniProt Q8NET8). In words: Whole-cell patch clamp, hTRPV3 Phase 1 / Phase 2 currents. Format: cell-based. An excerpt: Whole-cell patch clamp experiments permit the detection of currents through the TRPV3 channel in the cell line described above. A glass electrode is brought into contact with a single cell and the membrane is then ruptured, permitting control of the voltage of the cell membrane and measurement of currents flowing across the membrane using the amplifier attached to the electrode. A perfusion system permits control of the extracellular solution, including the addition of blockers and activators of the current. The current can be activated by heating this solution to 28° C. or warmer or by addition of 20 μM 2-APB to the solution.
Chain of hTRPV3 (Q8NET8 whole entry, the tested form may be a part): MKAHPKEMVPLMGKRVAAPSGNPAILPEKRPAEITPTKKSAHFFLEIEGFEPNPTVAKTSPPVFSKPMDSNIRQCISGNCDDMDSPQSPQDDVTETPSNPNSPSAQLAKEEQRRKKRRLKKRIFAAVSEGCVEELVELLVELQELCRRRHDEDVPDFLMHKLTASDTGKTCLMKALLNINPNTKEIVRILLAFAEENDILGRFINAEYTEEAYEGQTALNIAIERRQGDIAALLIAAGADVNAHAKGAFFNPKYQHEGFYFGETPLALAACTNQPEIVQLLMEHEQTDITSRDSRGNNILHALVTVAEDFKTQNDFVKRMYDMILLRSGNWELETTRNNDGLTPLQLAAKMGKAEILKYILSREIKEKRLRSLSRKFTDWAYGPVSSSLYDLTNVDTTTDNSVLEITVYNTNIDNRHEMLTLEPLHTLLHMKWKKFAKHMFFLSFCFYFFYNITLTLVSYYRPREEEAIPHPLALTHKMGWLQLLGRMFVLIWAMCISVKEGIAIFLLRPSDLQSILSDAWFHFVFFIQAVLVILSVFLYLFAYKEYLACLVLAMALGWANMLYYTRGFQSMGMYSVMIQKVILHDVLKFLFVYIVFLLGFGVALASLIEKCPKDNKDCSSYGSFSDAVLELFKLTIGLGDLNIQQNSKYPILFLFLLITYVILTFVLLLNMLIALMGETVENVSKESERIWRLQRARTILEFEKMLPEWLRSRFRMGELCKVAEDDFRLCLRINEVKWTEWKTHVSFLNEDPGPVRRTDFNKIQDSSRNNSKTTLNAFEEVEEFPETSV
TRPV3 cells were induced 20-48 hours, removed from growth plates, and replated at low density (to attain good single-cell physical separation) on glass coverslips for measurement. In some cases, cells were grown in low density overnight on glass coverslips. Patch clamp recordings were made in the whole-cell mode with a holding potential of −40 mV. Every 5 seconds, a voltage ramp was applied from −120 to +100 mV, 400 ms in duration. Currents elicited were quantified at −80 mV and +80 mV. […] External solution was Ringer's solution described above.
P1 refers to the Phase 1 current for human (h) TRPV3, and P2 refers to the Phase 2 current for human (h) TRPV3.
In Tables 3 and 4, Phase 1 refers to Phase 1 current for human (h) TRPV3 or rat (r) TRPV3, and Phase 2 refers to Phase 2 current for human (h) TRPV3 or rat (r) TRPV3. The hTRPV3 and rTRPV3 assays were performed as described herein. hERG refers to the inhibition the human ERG (hERG) channel. NaV1.5, refers to the pore forming aL-subunit of the voltage-dependent cardiac Na(+) channel and is an integral membrane protein involved in the initiation and conduction of action potentials. hTRPV3 HAMA IC50 refers to the IC50 of TRPV3 cells stably expressed in TRex-293 cells. Solubility Ringer refers to the compounds' solubility in Ringer's solution. LM T1/2 refers to liver microsome half-lives in either rat or human liver microsomes. FLIPR IC50 refers to the IC50 of the test compounds against recombinant hTRPV3 cells.

[1] abbreviates: Phase 1 current, inward, whole-cell patch clamp, read-out: hTRPV3 Patch P1 Inwd.
Setting [2] is: Phase 2 current, inward, whole-cell patch clamp, read-out: hTRPV3 Patch P2 Inwd.
Where [3] appears, read: Phase 1 current, read-out: hTRPV3 (nM) (Phase 1).
The mark [4] stands for this setting: Phase 2 current, read-out: hTRPV3 (nM) (Phase 2).

For `CC(C)(C)OC(=O)c1ccccc1N1CC[C@@H](Oc2ccc(C(F)(F)F)cn2)C1` [Compound 1-55, (R)-tert-butyl 2-(3-(5-(trifluoromethyl)pyridin-2-yloxy)pyrrolidin-1-yl)benzoate], the IC50 was greater than 1000 nM under setting [1] and greater than 1000 nM under setting [2].
In the case of `CN(C)Cc1ccccc1N1CC[C@@H](Oc2ccc(C(F)(F)F)cn2)C1` [Compound 1-60, (R)—N,N-dimethyl-1-(2-(3-(5-(trifluoromethyl)pyridin-2-yloxy)pyrrolidin-1-yl)phenyl) methanamine hydrochloride], the IC50 under setting [1] was greater than 1000 nM and the IC50 under setting [2] was greater than 1000 nM.
As for `CN(C)Cc1ccccc1N1CC[C@H](Oc2ccc(C(F)(F)F)cn2)C1` [Compound 1-61, (S)—N,N-dimethyl-1-(2-(3-(5-(trifluoromethyl)pyridin-2-yloxy)pyrrolidin-1-yl)phenyl) methanamine hydrochloride], the IC50 under setting [1] is greater than 1000 nM.
With `N#Cc1ccc(-c2ccccc2)cc1N1CC[C@H](Oc2ccc(C(F)(F)F)cn2)C1` [Compound 1-62, (S)-3-(3-(5-(trifluoromethyl)pyridin-2-yloxy)pyrrolidin-1-yl)biphenyl-4-carbonitrile], the IC50 runs as follows: under setting [1], greater than 1000 nM; under setting [2], greater than 1000 nM.
With `NC(=O)c1ccc(-c2ccccc2)cc1N1CC[C@H](Oc2ccc(C(F)(F)F)cn2)C1` [Compound 1-63, (S)-3-(3-(5-(trifluoromethyl)pyridin-2-yloxy)pyrrolidin-1-yl)biphenyl-4-carboxamide], the IC50 under setting [1] is greater than 1000 nM and the IC50 under setting [2] was greater than 1000 nM.
Turning to `CC(C)Oc1cc(-c2ccccc2)ccc1N1CC[C@H](Oc2ccc(C(F)(F)F)cn2)C1` [Compound 1-77, (S)-2-(1-(3-isopropoxybiphenyl-4-yl)pyrrolidin-3-yloxy)-5-(trifluoromethyl)pyridine], the IC50 is greater than 1000 nM under setting [1], greater than 3200 nM under setting [3], greater than 1000 nM under setting [2] and 1470 nM under setting [4].
As for `NC(=O)c1cc(-c2ccccc2)ccc1N1CC[C@@H](Oc2ccccn2)C1` [Compound 1-78, (R)-4-(3-(pyridin-2-yloxy)pyrrolidin-1-yl)biphenyl-3-carboxamide], the IC50 by setting is: under setting [1], 100 to 1000 nM; under setting [3], roughly 835 nM; under setting [2], 100 to 1000 nM; under setting [4], 402 nM.
Take `NC(=O)c1cc(-c2ccncc2)ccc1N1CC[C@@H](Oc2ccccn2)C1` [Compound 1-79, (R)-2-(3-(pyridin-2-yloxy)pyrrolidin-1-yl)-5-(pyridin-4-yl)benzamide]: the IC50 runs as follows: under setting [1], greater than 1000 nM; under setting [3], greater than 3200 nM; under setting [2], greater than 1000 nM; under setting [4], greater than 3200 nM.
Consider `NC(=O)c1cc(-c2ccncc2)ccc1N1CC[C@@H](Oc2ncccc2Cl)C1` [Compound 1-82, (R)-2-(3-(3-chloropyridin-2-yloxy)pyrrolidin-1-yl)-5-(pyridin-4-yl)benzamide hydrochloride], for which the IC50 is greater than 1000 nM under setting [1], 3600 nM under setting [3], greater than 1000 nM under setting [2] and 1930 nM under setting [4].
In the case of `NC(=O)c1cc(C(F)(F)F)ccc1N1CC[C@@H](Oc2ccc(C(F)(F)F)cn2)C1` [Compound 1-84, (R)-5-(trifluoromethyl)-2-(3-(5-(trifluoromethyl)pyridin-2-yloxy)pyrrolidin-1-yl)benzamide], the IC50 runs as follows: under setting [1], 100 to 1000 nM; under setting [3], 631 nM.
With `NC(=O)c1cc(-c2ccccn2)ccc1N1CC[C@@H](Oc2ncccc2Cl)C1` [Compound 1-85, (R)-2-(3-(3-chloropyridin-2-yloxy)pyrrolidin-1-yl)-5-(pyridin-2-yl)benzamide], the IC50 reads like this: under setting [1], greater than 1000 nM; under setting [3], 3480 nM.
Take `NC(=O)c1cc(-c2ccccc2)ccc1N1CC[C@@H](Oc2ccc3cc(Cl)ccc3n2)C1` [Compound 1-86, (R)-4-(3-(6-chloroquinolin-2-yloxy)pyrrolidin-1-yl)biphenyl-3-carboxamide]: the IC50 reads like this: under setting [2], greater than 1000 nM; under setting [4], greater than 3200 nM.
On to `NC(=O)c1cc(-c2cccnc2)ccc1N1CC[C@@H](Oc2ccccn2)C1` [Compound 1-87, hydrochloride], for which the IC50 under setting [1] is greater than 1000 nM.
